{
  "source": "patent US20180051317A1",
  "about": "“NON-RADIOACTIVE METHOD FOR DETERMINING THE CYTOLITIC ACTIVITY OF AN AGENT WITH RESPECT TO TARGET CELLS, USE THEREOF AND ASSOCIATED KIT” (CLEAN CELLS, priority 2015, published 2018)",
  "format_in_all_cases": "cell-based",
  "key": {"Raji cells": {"tested_on": "Raji cells", "test": "cell death induced by a pro-apoptotic chemical agent (nanoluciferase release and TO-PRO-3 flow cytometry)", "settings": "48 hours, increasing concentrations; regardless of the method for measuring the mortality", "procedure": "Raji cells transformed to stably express nanoluciferase (50 000 cells per well) are cultured for 48 hours at 37° C. (under a humidified atmosphere containing 5% CO2) in the presence of increasing concentrations of staurosporine, which is a pro-apoptotic drug, in RPMI-1640 medium containing 10% of FCS, and in the presence or absence of 0.2% of triton X-100 (to determine the maximum release). At the end of the incubation, 25 μl of supernatant are recovered from each well, transferred into a white “half-well” plate, mixed with 25 μl of NanoGlo® substrate diluted to 1/50 in D-PBS, incubated for 3 minutes and read on a Mithras LB940 luminometer. The results of the reading are expressed in RLU (relative luminescence units). The percentage of dead cells for each concentration of staurosporine is determined according to the formula (RLU[triton-free medium])/(RLU[0.2% triton])×100.\nAfter removing the supernatant, the remainder of the cells are resuspended, extemporaneously mixed with a final concentration of 0.25 μM of the vital marker TO-PRO-3 (Life Technologies) and acquired on a C6 flow cytometer (BD/Accuri). The percentage of dead cells is determined during the analysis of the cytometry data as the percentage of cells having integrated the TO-PRO-3.\nTwo identical independent experiments were carried out, the results of which are presented on graphs A and B of FIG. 28. […]"}, "[1]": {"tested_on": "CHO cells stably expressing human TNF-alpha in its membraned form", "test": "anti-TNF-alpha CDC assay, 51Cr release method", "settings": "for mean potency: mean±SD", "procedure": "(§1) The method for measuring nanoluciferase release was compared to the chromium method in a third model, that of the anti-TNF-alpha antibody adalimumab (Humira®). The present example illustrates the implementation thereof in an assay for measuring the CDC activity. For this, CHO cells pretransformed and selected to stably express human TNF-alpha in its membraned form were transformed to stably express nanoluciferase. […] Briefly, these cells, labeled or not labeled with ^51Cr, were incubated in the presence of increasing concentrations of adalimumab (Humira®) and of a source of complement (from guinea pig (Sigma)). The specific lysis was then measured by the appropriate method (chromium release or nanoluciferase release).\n(§2) The percentage of specific lysis obtained for each concentration X is calculated in the same way for the two types of methods, on the basis of the measurements of radioactivity (in CCPM) or of luminescence (in RLU) according to the formula\n(§3) The percentages of specific lysis are represented along the y-axis, each point (black circle for nanoluciferase and white squares for ^51Cr) representing the mean of the nine determinations (3 replicates in 3 independent experiments) and the vertical bars representing the standard deviations. The data were modeled by means of a 4-parameter sigmoidal regression using the GraphPad Prism software."}, "[2]": {"tested_on": "CHO cells stably expressing TNF-alpha and nanoluciferase", "test": "anti-TNF-alpha ADCC assay, 51Cr release method", "settings": "mean±SD of 3 experiments", "procedure": "(§4) The nanoluciferase method was compared to the ^51Cr method in an anti-TNF-alpha ADCC assay. For this, the CHO cells described in example 7, stably expressing TNF-alpha and nanoluciferase, were used, as was a standard range of adalimumab and of variations at 80% and 125% of this range. Three independent experiments were carried out, according to the same methodology as in the previous examples."}, "[3]": {"tested_on": "CHO cells stably expressing human TNF-alpha in its membraned form", "test": "anti-TNF-alpha CDC assay, nanoluciferase release method", "settings": "for mean potency: mean±SD", "procedure": "as §1, §2, §3"}, "[4]": {"tested_on": "CHO cells stably expressing TNF-alpha and nanoluciferase", "test": "anti-TNF-alpha ADCC assay, nanoluciferase release method", "settings": "mean±SD of 3 experiments", "procedure": "as §4"}, "Raji target cells [5]": {"tested_on": "Raji target cells", "test": "anti-CD20 CDC assay, nanoluciferase release method", "procedure": "(§5) Raji target cells transformed to stably express nanoluciferase were incubated or not incubated for 1 hour in a saline solution of Na2CrO4 equivalent to 100 μCi of ^51Cr per million cells, then washed 4 times with RPMI-1640, 10% FCS, and counted. The cells (3000 per well), labeled or not labeled with ^51Cr, were then incubated at 37° C. in a humidified atmosphere at 5% CO2 in flat-bottomed 96-well plates treated for cell culture, in the presence of increasing concentrations of the rituximab antibody (MabThera®) and of cytotoxic effector cells (T lymphocytes expressing CD16, 30 000 cells per well) in RPMI-1640 supplemented with 5% of FCS.\n(§6) After 4 hours of incubation, the percentage of specific lysis is measured according to the corresponding method (release of ^51Cr or of nanoluciferase depending on whether the cells have or have not been labeled with chromium): 25 μl of supernatant of the ^51Cr-labeled cells are recovered and deposited on a Lumaplate® (Perkin Elmer). At the same time, for the cells not labeled with ^51Cr, 25 μl of supernatant are recovered from each well, transferred into white “half-well” 96-well plates, mixed with 25 μl of NanoGlo® substrate diluted to 1/50 in D-PBS, incubated for 3 minutes and read on a Mithras LB940 luminometer (Berthold Technologies). After drying overnight, the radioactivity of the supernatants deposited in the Lumaplate® is measured in a Microbeta-Jet counter (Perkin Elmer) and expressed in CCPM (corrected count per minute) after standardization of the detectors.\n(§7) The percentage of specific lysis obtained for each concentration X is calculated in the same way for the two types of methods, from the measurements of radioactivity (in CCPM) or of luminescence (in RLU) according to the formula\nas §3, with “represented in FIG. 9” for “represented”, “point” for “point (black circle for nanoluciferase and white squares for ^51Cr)”\n(§8) This approach also makes it possible to evaluate the accuracy of the method according to the ICH-Q2(R1) criteria.\n(§9) Using the same type of target cells as that of example 4, the nanoluciferase method was compared to the ^51Cr method in an anti-CD20 CDC assay. The methodology applied was the same as that described in example 4, the cytolytic system being formed by a source of complement. In the same way, a standard range of antibody (rituximab) was used, and also 80% and 125% modified concentration ranges. Three independent experiments were carried out, one of which was carried out by a second operator."}, "Raji target cells [6]": {"tested_on": "Raji target cells", "test": "anti-CD20 ADCC assay, nanoluciferase release method", "procedure": "(§10) The same Raji cells expressing nanoluciferase were or were not labeled with ^51Cr and were used in parallel in the assay.\nas §5, §6, §7\nas §3, with “represented in FIG. 9” for “represented”, “point” for “point (black circle for nanoluciferase and white squares for ^51Cr)”\nas §8"}, "Raji target cells [7]": {"tested_on": "Raji target cells", "test": "anti-CD20 CDC assay, 51Cr release method", "procedure": "as §5, §6, §7\nas §3, with “represented in FIG. 9” for “represented”, “point” for “point (black circle for nanoluciferase and white squares for ^51Cr)”\nas §8, §9"}, "Raji target cells [8]": {"tested_on": "Raji target cells", "test": "anti-CD20 ADCC assay, 51Cr release method", "procedure": "as §10, §5, §6, §7\nas §3, with “represented in FIG. 9” for “represented”, “point” for “point (black circle for nanoluciferase and white squares for ^51Cr)”\nas §8"}, "[9]": {"settings": "51Cr, guinea pig complement, mean±SD over the whole of the ranges in the 3 experiments"}, "[10]": {"settings": "guinea pig complement, mean±SD over the whole of the ranges in the 3 experiments"}, "[11]": {"settings": "100% range, mean±SD of 3 experiments"}, "[12]": {"settings": "complement source, mean±SD, all of the 80%, 100% and 125% ranges"}, "[13]": {"settings": "80% range, mean±SD of 3 experiments"}, "[14]": {"settings": "125% range, mean±SD of 3 experiments"}, "[15]": {"settings": "mean±SD of 3 experiments, 100% range"}, "[16]": {"settings": "mean±SD, 80%, 100% and 125% ranges, 3 experiments, 4 h, CD16 T lymphocyte effectors"}},
  "data": [
    {"molecule": "CN[C@@H]1C[C@H]2O[C@@](C)([C@@H]1OC)n1c3ccccc3c3c4c(c5c6ccccc6n2c5c31)C(=O)NC4", "note": "[staurosporine]", "values": [
      {"measurement": "mortality of the target cells", "setting": "Raji cells", "result": "proportional relationship between the concentration of staurosporine and the mortality of the target cells"}
    ]},
    {"molecule": "adalimumab", "values": [
      {"measurement": "mean potency", "setting": "[1]; 51Cr, 80% range", "result": "91.2±23.6", "unit": "%"},
      {"measurement": "mean potency", "setting": "[1]; 51Cr, 125% range", "result": "153.9±29.2", "unit": "%"},
      {"measurement": "Emax", "setting": "[1]; [9]", "result": "50.4±5.6", "unit": "%"},
      {"measurement": "Emin", "setting": "[1]; [9]", "result": "3.2±2.8", "unit": "%"},
      {"measurement": "EC50", "setting": "[1]; chromium, standard ranges, mean±SD of 3 experiments", "result": "0.1508 ± 0.015", "unit": "µg/mL"},
      {"measurement": "mean potency", "setting": "[2]; 80% range", "result": "91.4±43.3", "unit": "%"},
      {"measurement": "mean potency", "setting": "[2]; 125% range", "result": "138.5±43.9", "unit": "%"},
      {"measurement": "mean potency", "setting": "[3]; 80% range", "result": "83.4±10.1", "unit": "%"},
      {"measurement": "mean potency", "setting": "[3]; 125% range", "result": "131.7±47.2", "unit": "%"},
      {"measurement": "Emax", "setting": "[3]; [10]", "result": "45.7±5.1", "unit": "%"},
      {"measurement": "Emin", "setting": "[3]; [10]", "result": "0.9±1.5", "unit": "%"},
      {"measurement": "EC50", "setting": "[3]; standard ranges, mean±SD of 3 experiments", "result": "0.1569 ± 0.0234", "unit": "µg/mL"},
      {"measurement": "mean potency", "setting": "[4]; 80% range", "result": "75.5±15.5", "unit": "%"},
      {"measurement": "mean potency", "setting": "[4]; 125% range", "result": "114.2±22.8", "unit": "%"}
    ]},
    {"molecule": "rituximab", "values": [
      {"measurement": "potency", "setting": "Raji target cells [5]; 80% range, mean±SD", "result": "65.0±12.9", "unit": "%"},
      {"measurement": "EC50", "setting": "Raji target cells [5]; [11]", "result": "0.0731 ± 0.0099", "unit": "µg/mL"},
      {"measurement": "potency", "setting": "Raji target cells [5]; 125% range, mean±SD", "result": "105.8±8.2", "unit": "%"},
      {"measurement": "Emax", "setting": "Raji target cells [5]; [12]", "result": "95.6±7.0", "unit": "%"},
      {"measurement": "Emin", "setting": "Raji target cells [5]; [12]", "result": "−0.3±3.2", "unit": "%"},
      {"measurement": "potency (EC50[100%]/EC50[X%]×100)", "setting": "Raji target cells [6]; [13]", "result": "83.6±22", "unit": "%"},
      {"measurement": "potency (EC50[100%]/EC50[X%]×100)", "setting": "Raji target cells [6]; [14]", "result": "119.5±22.7", "unit": "%"},
      {"measurement": "EC50", "setting": "Raji target cells [6]; [15]", "result": "0.0318 ± 0.0073", "unit": "µg/mL"},
      {"measurement": "Emax (maximum lysis percentage)", "setting": "Raji target cells [6]; [16]", "result": "73.6±8.4", "unit": "%"},
      {"measurement": "Emin (minimum lysis percentage)", "setting": "Raji target cells [6]; [16]", "result": "1.2±1.2", "unit": "%"},
      {"measurement": "potency", "setting": "Raji target cells [7]; 80% range, mean±SD", "result": "69.6±12.3", "unit": "%"},
      {"measurement": "EC50", "setting": "Raji target cells [7]; [11]", "result": "0.1567 ± 0.0301", "unit": "µg/mL"},
      {"measurement": "potency", "setting": "Raji target cells [7]; 125% range, mean±SD", "result": "131.5±16.4", "unit": "%"},
      {"measurement": "Emax", "setting": "Raji target cells [7]; [12]", "result": "88.6±7.8", "unit": "%"},
      {"measurement": "Emin", "setting": "Raji target cells [7]; [12]", "result": "3.0±3.4", "unit": "%"},
      {"measurement": "potency (EC50[100%]/EC50[X%]×100)", "setting": "Raji target cells [8]; [13]", "result": "76.7±10", "unit": "%"},
      {"measurement": "potency (EC50[100%]/EC50[X%]×100)", "setting": "Raji target cells [8]; [14]", "result": "131.9±11.9", "unit": "%"},
      {"measurement": "EC50", "setting": "Raji target cells [8]; [15]", "result": "0.0552 ± 0.0156", "unit": "µg/mL"},
      {"measurement": "Emax (maximum lysis percentage)", "setting": "Raji target cells [8]; [16]", "result": "75.7±6.0", "unit": "%"},
      {"measurement": "Emin (minimum lysis percentage)", "setting": "Raji target cells [8]; [16]", "result": "1.0±1.5", "unit": "%"}
    ]}
  ]
}
